No end group written: not given here.

Our source for the Inhibition rate and cAMP values is US5446129A, “Peptide or its salt for autoimmune hyperthyroidism containing it” (Ishihara Sangyo Kaisha Ltd., priority 1990, dated 1995).

In this experiment the test system is production of cAMP under stimulation by TSAb. Nature of the experiment: Test Example 2: cAMP produced under stimulation by TSAb in FRTL5 cells (96-well). Type of experiment: cell-based, rat. The following applies: TSAb positive IgG. How it is done: Using rat established thyroid cell line FRTL5, the influence of the peptide over the production of cAMP under stimulation by TSAb, was examined in accordance with the method of S. Kosugi et al. (Endocrinology, Vol. 125, No. 1, p 410 (1989)). The method will be described as follows.
Preincubated FRTL5 cells (1.5×10^5 cells/ml) were transferred to a multiplate having 96 wells in an amount of 100 μl per well and incubated in a CO2 incubator for 6 days while changing the medium (having TSH excluded). Then, the medium was removed and the cells were rinsed and subjected to the test. 40 μl of a solution of IgG from TSAb positive serum and 10 μl of a solution containing 0, 15 or 30 μg of the desired peptide were reacted in a test tube at 4° C. for 20 hours. To this reaction solution, 5 μl of a 0.5 mM solution of 3-isobutyl-1-methylxanthine was added, and 50 μl of this reaction solution was added to the previously prepared FRTL5 cells, followed by incubation at 37° C. for two hours.
On the other hand, as control, a test was conducted in the same manner using a normal serum.
With respect to each sample, the quantitative analysis of cAMP produced under stimulation by TSAb was conducted by means of a commercially available cAMP-radioimmunoassay kit (1-VQ12, manufactured by Eiken Kagaku Corporation).

Consider EQEDEIIGFG [Peptide No. 8], for which, for the setting “15 μg/well peptide”, the Inhibition rate amounted to 54% and the cAMP came to 3.2 nM. Under “30 μg/well peptide”, this sequence showed an Inhibition rate of 76% and a cAMP of 1.8 nM.
